For 17 compounds, IC50 results are on record in BindingDB's records for doi:10.1016/j.bioorg.2016.09.007 (Shaoyang University, 2016).

This test concerns the target T1, Polyphenol oxidase 1 [61-568] (Agaricus bisporus, UniProt Q00024).
T1 construct: 61-568
T1 sequence (Q00024 whole entry): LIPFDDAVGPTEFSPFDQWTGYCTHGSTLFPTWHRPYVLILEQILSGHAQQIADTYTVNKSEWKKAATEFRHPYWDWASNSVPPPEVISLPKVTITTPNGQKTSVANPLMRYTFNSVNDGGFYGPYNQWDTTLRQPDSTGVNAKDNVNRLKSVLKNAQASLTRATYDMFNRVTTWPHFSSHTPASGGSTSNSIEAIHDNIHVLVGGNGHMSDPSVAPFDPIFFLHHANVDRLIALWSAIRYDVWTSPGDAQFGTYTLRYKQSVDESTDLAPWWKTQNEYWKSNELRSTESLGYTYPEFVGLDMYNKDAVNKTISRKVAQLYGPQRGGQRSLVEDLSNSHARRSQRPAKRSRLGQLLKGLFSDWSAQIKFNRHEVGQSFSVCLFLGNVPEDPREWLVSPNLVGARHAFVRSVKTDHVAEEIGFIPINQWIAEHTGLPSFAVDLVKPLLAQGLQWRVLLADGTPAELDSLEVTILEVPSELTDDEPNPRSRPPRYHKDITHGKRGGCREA
As to the kind of experiment: Tyrosinase Activity Assay. As to conditions: pH 6.8. The method, then:
Briefly, 1,3,4-thiadiazole derivatives were tested for diphenolase inhibitory activity of tyrosinase using L-DOPA (dihydroxyphenylalanine) as substrate. All the compounds were dissolved in DMSO and its final concentration in the reaction mixture was 2.0%. Thirty units of mushroom tyrosinase (0.5 mg/ml) were first pre-incubated with the compounds, in 50 mM phosphate buffer (pH 6.8), for 10 min at 25 °C. Then the L-DOPA (0.5 mM) was added to the reaction mixture and the enzyme reaction was continuously monitored by measuring the change in absorbance at 475 nm of formation of the DOPA chrome for 1 min.
In general, IC50 refers to the concentration that gives 50% inhibition. Higher therefore signals weaker potency in that assay. `COc1cc(OC)c(C=Nc2nnc(S)s2)c(OC)c1` [2-((2,4,6-Trimethoxybenzylidene)amino)-5-mercapto-1,3,4-thiadiazole (16)]: the 50% inhibitory concentration (IC50) is 907 nM.

Turning to `Fc1ccccc1C=Nc1nnc(S)s1` [2-((2-Fluorobenzylidene)amino)-5-mercapto-1,3,4-thiadiazole (2)], the IC50 was 765 nM.

In turn, `COc1ccccc1C=Nc1nnc(S)s1` [2-((2-Methoxybenzylidene)amino)-5-mercapto-1,3,4-thiadiazole (10)] displayed an IC50 of 733 nM. The IC50 values of the last two compounds are within 1.5-fold of each other.

`O=[N+]([O-])c1ccccc1C=Nc1nnc(S)s1` [2-((2-Nitrobenzylidene)amino)-5-mercapto-1,3,4-thiadiazole (9)] had an IC50 of 671 nM.

Turning to `Sc1nnc(N=Cc2ccc(Cl)c(Cl)c2)s1` [2-((3,4-Dichlorobenzylidene)amino)-5-mercapto-1,3,4-thiadiazole (5)], 3620 nM corresponded to half-maximal inhibition (IC50).

For the compound `COc1cc(C=Nc2nnc(S)s2)cc(OC)c1` [2-((3,5-Dimethoxybenzylidene)amino)-5-mercapto-1,3,4-thiadiazole (11)], the IC50 is 5350 nM. This IC50 and that of the compound before are within 1.5-fold of each other.

`Sc1nnc(N=Cc2cccc(Cl)c2)s1` [2-((3-Chlorobenzylidene)amino)-5-mercapto-1,3,4-thiadiazole (3)] displayed an IC50 of 4750 nM.

With `CC(C)(C)c1ccc(C=Nc2nnc(S)s2)cc1` [2-((4-(Tert-butyl)benzylidene)amino)-5-mercapto-1,3,4-thiadiazole (8)], half-maximal inhibition (IC50) required 1390 nM.

In turn, `Sc1nnc(N=Cc2ccc(Cl)cc2)s1` [2-((4-Chlorobenzylidene)amino)-5-mercapto-1,3,4-thiadiazole (4)] registered a 50% inhibitory concentration (IC50) of 2460 nM.

`Oc1ccc(Cl)cc1C=Nc1nnc(SCc2ccccc2)s1` [2-(((5-(Benzylthio)-1,3,4-thiadiazol-2-yl)imino)methyl)-4-chlorophenol (17)] returned an IC50 of 247000 nM.

Consider `Oc1ccccc1C=Nc1nnc(S)s1` [2-(((5-Mercapto-1,3,4-thiadiazol-2-yl)imino)methyl)phenol (12)], for which inhibition was half-maximal at 785 nM (IC50).

`Sc1nnc(N=Cc2ccccc2)s1` [2-(Benzylideneamino)-5-mercapto-1,3,4-thiadiazole (1)] displayed an IC50 of 49200 nM. Against the preceding compound, the IC50 is about 63-fold higher.

`COc1cc(C=Nc2nnc(S)s2)cc(OC)c1O` [4-(((5-Mercapto-1,3,4-thiadiazol-2-yl)imino)methyl)-2,6-dimethoxyphenol (15)] came in with an IC50 of 473 nM.

In turn, `COc1cc(C=Nc2nnc(S)s2)ccc1O` [4-(((5-Mercapto-1,3,4-thiadiazol-2-yl)imino)methyl)-2-methoxyphenol (14)] yielded an IC50 of 36 nM.

The compound `Oc1ccc(C=Nc2nnc(S)s2)c(O)c1` [4-(((5-Mercapto-1,3,4-thiadiazol-2-yl)imino)methyl)benzene-1,3-diol (13)] registered an IC50 of 255 nM.

For `Oc1ccc(Br)cc1C=Nc1nnc(S)s1` [4-Bromo-2-(((5-mercapto-1,3,4-thiadiazol-2-yl)imino)methyl)phenol (7)], the concentration for half-maximal inhibition (IC50) turned out to be 1970 nM.

With `Oc1ccc(Cl)cc1C=Nc1nnc(S)s1` [4-Chloro-2-(((5-mercapto-1,3,4-thiadiazol-2-yl)imino)methyl)phenol (6)], 1720 nM corresponded to half-maximal inhibition (IC50).
